Test results from patent publication US20160287615A1, “NOVEL ENCAPSULATION OF FLUORESCENT, PHOTO-SENSITIVE, OR OXYGEN-SENSITIVE ACTIVE INGREDIENT FOR TOPICAL APPLICATION” (BioPharmX, Inc., priority 2015, published 2016).
Structures can show the parent of a compound that is named as a salt.

Key:
[1] = Fluorescence microscopy of compositions under UV fluorescent lamp illumination; assay type: physicochemical; settings: 450 nm excitation wavelength
Text: FIGS. 4a and 4b are images of the fluorescence given off by different compositions in response to illumination with a UV fluorescent lamp. The images of FIGS. 4a and 4b were captured using a digital camera connected to a microscope.
FIGS. 5a and 5b are images of the fluorescence given off by different compositions in response to illumination with a UV fluorescent lamp. The images of FIGS. 5a and 5b were captured using a digital camera connected to a microscope.
The composition includes minocycline contained in a plurality of Mg2CO3 tubular microparticles with a concentration of 1:100 of minocycline to Mg2CO3 tubular microparticles (10 milligrams of minocycline per gram of Mg2CO3 tubular microparticles).
The composition shown in FIG. 4b was made by dissolving minocycline HCl in methyl alcohol at a concentration of 10 mg/ml. A plurality of tubular microparticles comprising Mg2CO3 was added to the solution. Microscope slides were prepared with minocycline HCl (shown in FIG. 4a) and the prepared composition with a plurality of tubular microparticles described in this paragraph (shown in FIG. 4b).
Fluorescence can be an indicator of photo-initiated degradation of some antibiotics, including minocycline.

[2] = 10 h
Experimental: Additional data was collected with a high performance liquid chromatography (HPLC) machine for two samples. The first sample was minocycline HCl and the second sample comprised a plurality of microparticles that contained minocycline HCl. […] Following exposure of both samples to ultraviolet illumination for 10 hours, an HPLC machine was used to assess the level of degradation of the minocycline active ingredient in both samples.

CN(C)c1ccc(O)c2c1C[C@H]1C[C@H]3[C@H](N(C)C)C(O)=C(C(N)=O)C(=O)[C@@]3(O)C(O)=C1C2=O [minocycline HCl]
fluorescence emission wavelength [1]: approximately 670 nm
fluorescence observed by fluorescence microscopy ([1]; UV fluorescent lamp illumination, microscope magnification at 10 times): showed fluorescence emission
degradation of the minocycline active ingredient [2]: 4.3%
